Data: ChEMBL document CHEMBL5365487, “Development of 18F-Labeled PET Tracer Candidates for Imaging of the Abelson Non-receptor Tyrosine Kinase in Parkinson's Disease” (J Med Chem, 2023)

Columns and labels:
[1] = Metabolic stability in human liver microsomes assessed as stability measured after 30 mins by LC-MS/MS analysis; format: ADME, Microsome; details: read-out: Drug metabolism
[2] = Plasma protein binding in CD-1 ISG mouse plasma measured after 4 hrs by equilibrium dialysis based LC-MS/MS analysis; format: ADME, cell-free; details: read-out: PPB (converted)
[3] = Half life in C57BL6 mouse brain at 1 mg/kg, iv single administration measured upto 24 hrs by LC-MS/MS analysis; format: ADME, organism-based
[4] = AUC in C57BL6 mouse brain at 1 mg/kg, iv single administration measured upto 24 hrs by LC-MS/MS analysis; format: ADME, organism-based; parameters: time < 24 hrs, dose 1 mg/kg, route iv
[5] = AUC in C57BL6 mouse brain assessed as free brain drug at 1 mg/kg, iv single administration measured upto 24 hrs by LC-MS/MS analysis; format: ADME, organism-based; parameters: time < 24 hrs, dose 1 mg/kg, route iv; details: in vivo
[6] = Initial plasma concentration in C57BL6 mouse plasma at 1 mg/kg, iv single administration measured upto 24 hrs by LC-MS/MS analysis; format: ADME, organism-based
[7] = AUC (0 to last) in C57BL6 mouse brain at 1 mg/kg, iv single administration measured upto 24 hrs by LC-MS/MS analysis; format: ADME, organism-based; parameters: time < 24 hrs, dose 1 mg/kg, route iv
[8] = Ratio of total drug brain AUC to total plasma AUC in C57BL6 mouse brain at 1 mg/kg, iv single administration measured upto 24 hrs by LC-MS/MS analysis; format: ADME, organism-based
[9] = Ex vivo biodistribution in Hsd:ICR (CD-1) mouse assessed as brain uptake at 12.5 to 26.9 MBq, iv measured for 5 to 90 mins by gamma counter analysis; format: ADME, organism-based; details: dose lower 12.5 MBq, time lower 5 min, dose upper 26.9 MBq, time upper 90 min
[10] = Ex vivo biodistribution in Hsd:ICR (CD-1) mouse assessed as brain uptake at 12.5 to 26.9 MBq, iv measured for 5 to 90 mins in presence of imidazole [1,2-alpha]pyridine by gamma counter analysis; format: ADME, organism-based; details: dose lower 12.5 MBq, time lower 5 min, dose upper 26.9 MBq, time upper 90 min
[11] = Ex vivo biodistribution in Hsd:ICR (CD-1) mouse assessed as brain uptake at 12.5 to 26.9 MBq, iv measured for 5 mins by gamma counter analysis; format: ADME, organism-based; details: dose 12.5-26.9 MBq
[12] = Ex vivo biodistribution in Hsd:ICR (CD-1) mouse assessed as blood uptake at 12.5 to 26.9 MBq, iv measured after 90 mins by gamma counter analysis; format: ADME, organism-based; details: dose 12.5-26.9 MBq
[13] = Ex vivo biodistribution in Hsd:ICR (CD-1) mouse assessed as thigh bone uptake at 12.5 to 26.9 MBq, iv measured for 5 mins by gamma counter analysis; format: ADME, organism-based; details: dose 12.5-26.9 MBq
[14] = Ex vivo biodistribution in Hsd:ICR (CD-1) mouse assessed as thigh bone uptake at 12.5 to 26.9 MBq, iv measured after 90 mins by gamma counter analysis; format: ADME, organism-based; details: dose 12.5-26.9 MBq
[15] = In vivo stability in iv dosed Hsd:ICR (CD-1) mouse plasma assessed as stability measured after 90 mins by radio-HPLC analysis; format: ADME, organism-based; details: for Stability: in vivo, iv
[16] = In vivo stability in iv dosed Hsd:ICR (CD-1) mouse plasma assessed as stability measured after 5 mins by radio-HPLC analysis; format: ADME, organism-based; details: for remaining at 5 min: Hsd:ICR (CD-1), plasma, read-out: Stability
[17] = In vivo stability in iv dosed Hsd:ICR (CD-1) mouse plasma assessed as stability measured after 45 mins by radio-HPLC analysis; format: ADME, organism-based; details: for remaining at 0.75 h: Hsd:ICR (CD-1), plasma, read-out: Stability
[18] = In vivo stability in iv dosed Hsd:ICR (CD-1) mouse brain assessed as stability measured after 5 mins by radio-HPLC analysis; format: ADME, organism-based; details: read-out: Stability
[19] = In vivo stability in iv dosed Hsd:ICR (CD-1) mouse brain assessed as stability measured after 90 mins by radio-HPLC analysis; format: ADME, organism-based; details: read-out: Stability
[20] = Biodistribution in Hsd:ICR (CD-1) mouse assessed as brain uptake at 12.5 to 26.9 MBq, iv in presence of imidazole [1,2-alpha]pyridine measured at early time points by PET imaging analysis; format: ADME, organism-based; details: in vivo, dose 12.5-26.9 MBq
[21] = biological target: Interleukin-1 receptor-associated kinase 1 (Homo sapiens) (UniProt P51617); assay: Inhibition of IRAK1 (unknown origin) at 1 uM by ADP-Glo kinase assay relative to control
Interleukin-1 receptor-associated kinase 1 (Homo sapiens), sequence (P51617 whole entry, looked up): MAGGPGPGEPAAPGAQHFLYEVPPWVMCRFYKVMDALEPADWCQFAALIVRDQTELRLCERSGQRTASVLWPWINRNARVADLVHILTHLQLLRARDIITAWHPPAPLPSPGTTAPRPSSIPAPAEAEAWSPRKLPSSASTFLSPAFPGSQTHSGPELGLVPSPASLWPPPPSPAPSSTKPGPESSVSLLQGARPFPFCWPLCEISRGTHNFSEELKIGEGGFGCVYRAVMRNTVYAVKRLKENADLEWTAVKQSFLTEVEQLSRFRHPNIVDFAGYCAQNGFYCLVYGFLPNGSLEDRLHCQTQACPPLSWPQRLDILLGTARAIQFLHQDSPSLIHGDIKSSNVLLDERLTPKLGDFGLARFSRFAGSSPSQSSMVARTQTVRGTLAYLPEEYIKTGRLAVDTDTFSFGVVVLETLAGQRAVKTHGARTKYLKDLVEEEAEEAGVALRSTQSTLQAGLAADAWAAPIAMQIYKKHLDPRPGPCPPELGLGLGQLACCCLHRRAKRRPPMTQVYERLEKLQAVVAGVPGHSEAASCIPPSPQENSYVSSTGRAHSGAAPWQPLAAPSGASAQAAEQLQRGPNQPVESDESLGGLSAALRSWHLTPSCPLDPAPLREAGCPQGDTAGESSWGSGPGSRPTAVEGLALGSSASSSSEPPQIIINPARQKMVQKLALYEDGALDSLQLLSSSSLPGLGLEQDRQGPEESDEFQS

[22] = biological target: T1, Interleukin-1 receptor-associated kinase 3 (Homo sapiens) (UniProt Q9Y616); assay: Inhibition of IRAK3 (unknown origin) at 1 uM by ADP-Glo kinase assay relative to control
T1 sequence (whole entry): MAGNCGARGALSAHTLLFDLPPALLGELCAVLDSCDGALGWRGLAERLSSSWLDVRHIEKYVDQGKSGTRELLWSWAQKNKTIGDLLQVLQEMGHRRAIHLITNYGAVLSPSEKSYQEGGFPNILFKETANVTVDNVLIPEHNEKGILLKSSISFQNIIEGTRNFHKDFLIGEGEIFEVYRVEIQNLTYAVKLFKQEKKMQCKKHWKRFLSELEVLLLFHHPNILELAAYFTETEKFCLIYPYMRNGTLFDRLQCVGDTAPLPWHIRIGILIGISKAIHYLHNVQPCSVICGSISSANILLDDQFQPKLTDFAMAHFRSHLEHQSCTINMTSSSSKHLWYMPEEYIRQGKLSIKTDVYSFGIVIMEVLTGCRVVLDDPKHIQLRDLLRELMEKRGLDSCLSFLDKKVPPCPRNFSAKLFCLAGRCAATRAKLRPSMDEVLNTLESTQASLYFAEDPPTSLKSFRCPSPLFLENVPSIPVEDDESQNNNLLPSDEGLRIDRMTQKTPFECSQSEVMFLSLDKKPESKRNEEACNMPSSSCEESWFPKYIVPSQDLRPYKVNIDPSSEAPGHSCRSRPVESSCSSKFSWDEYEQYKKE

[23] = biological target: Tyrosine-protein kinase Lck (Homo sapiens) (UniProt P06239); assay: Inhibition of LCK (unknown origin) at 1 uM by ADP-Glo kinase assay relative to control
Tyrosine-protein kinase Lck (Homo sapiens), sequence (P06239 2-509 limits assumed): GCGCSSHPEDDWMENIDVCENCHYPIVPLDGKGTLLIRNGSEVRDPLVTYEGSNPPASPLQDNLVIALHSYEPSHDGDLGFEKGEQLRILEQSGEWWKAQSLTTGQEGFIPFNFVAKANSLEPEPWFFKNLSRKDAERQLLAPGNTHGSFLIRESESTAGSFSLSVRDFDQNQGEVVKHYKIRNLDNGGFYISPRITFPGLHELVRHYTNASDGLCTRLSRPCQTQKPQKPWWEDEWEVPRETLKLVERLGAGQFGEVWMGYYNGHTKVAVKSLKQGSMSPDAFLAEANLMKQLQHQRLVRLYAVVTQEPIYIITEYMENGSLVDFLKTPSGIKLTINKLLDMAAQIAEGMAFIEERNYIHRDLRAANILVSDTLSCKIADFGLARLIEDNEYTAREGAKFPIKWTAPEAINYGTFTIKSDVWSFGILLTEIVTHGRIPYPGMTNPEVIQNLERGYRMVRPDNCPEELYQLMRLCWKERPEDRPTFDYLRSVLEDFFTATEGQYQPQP

[24] = biological target: Leucine-rich repeat serine/threonine-protein kinase 2 (Homo sapiens) (UniProt Q5S007); assay: Inhibition of LRRK2 (unknown origin) at 1 uM by ADP-Glo kinase assay relative to control
Leucine-rich repeat serine/threonine-protein kinase 2 (Homo sapiens), sequence (Q5S007 whole entry): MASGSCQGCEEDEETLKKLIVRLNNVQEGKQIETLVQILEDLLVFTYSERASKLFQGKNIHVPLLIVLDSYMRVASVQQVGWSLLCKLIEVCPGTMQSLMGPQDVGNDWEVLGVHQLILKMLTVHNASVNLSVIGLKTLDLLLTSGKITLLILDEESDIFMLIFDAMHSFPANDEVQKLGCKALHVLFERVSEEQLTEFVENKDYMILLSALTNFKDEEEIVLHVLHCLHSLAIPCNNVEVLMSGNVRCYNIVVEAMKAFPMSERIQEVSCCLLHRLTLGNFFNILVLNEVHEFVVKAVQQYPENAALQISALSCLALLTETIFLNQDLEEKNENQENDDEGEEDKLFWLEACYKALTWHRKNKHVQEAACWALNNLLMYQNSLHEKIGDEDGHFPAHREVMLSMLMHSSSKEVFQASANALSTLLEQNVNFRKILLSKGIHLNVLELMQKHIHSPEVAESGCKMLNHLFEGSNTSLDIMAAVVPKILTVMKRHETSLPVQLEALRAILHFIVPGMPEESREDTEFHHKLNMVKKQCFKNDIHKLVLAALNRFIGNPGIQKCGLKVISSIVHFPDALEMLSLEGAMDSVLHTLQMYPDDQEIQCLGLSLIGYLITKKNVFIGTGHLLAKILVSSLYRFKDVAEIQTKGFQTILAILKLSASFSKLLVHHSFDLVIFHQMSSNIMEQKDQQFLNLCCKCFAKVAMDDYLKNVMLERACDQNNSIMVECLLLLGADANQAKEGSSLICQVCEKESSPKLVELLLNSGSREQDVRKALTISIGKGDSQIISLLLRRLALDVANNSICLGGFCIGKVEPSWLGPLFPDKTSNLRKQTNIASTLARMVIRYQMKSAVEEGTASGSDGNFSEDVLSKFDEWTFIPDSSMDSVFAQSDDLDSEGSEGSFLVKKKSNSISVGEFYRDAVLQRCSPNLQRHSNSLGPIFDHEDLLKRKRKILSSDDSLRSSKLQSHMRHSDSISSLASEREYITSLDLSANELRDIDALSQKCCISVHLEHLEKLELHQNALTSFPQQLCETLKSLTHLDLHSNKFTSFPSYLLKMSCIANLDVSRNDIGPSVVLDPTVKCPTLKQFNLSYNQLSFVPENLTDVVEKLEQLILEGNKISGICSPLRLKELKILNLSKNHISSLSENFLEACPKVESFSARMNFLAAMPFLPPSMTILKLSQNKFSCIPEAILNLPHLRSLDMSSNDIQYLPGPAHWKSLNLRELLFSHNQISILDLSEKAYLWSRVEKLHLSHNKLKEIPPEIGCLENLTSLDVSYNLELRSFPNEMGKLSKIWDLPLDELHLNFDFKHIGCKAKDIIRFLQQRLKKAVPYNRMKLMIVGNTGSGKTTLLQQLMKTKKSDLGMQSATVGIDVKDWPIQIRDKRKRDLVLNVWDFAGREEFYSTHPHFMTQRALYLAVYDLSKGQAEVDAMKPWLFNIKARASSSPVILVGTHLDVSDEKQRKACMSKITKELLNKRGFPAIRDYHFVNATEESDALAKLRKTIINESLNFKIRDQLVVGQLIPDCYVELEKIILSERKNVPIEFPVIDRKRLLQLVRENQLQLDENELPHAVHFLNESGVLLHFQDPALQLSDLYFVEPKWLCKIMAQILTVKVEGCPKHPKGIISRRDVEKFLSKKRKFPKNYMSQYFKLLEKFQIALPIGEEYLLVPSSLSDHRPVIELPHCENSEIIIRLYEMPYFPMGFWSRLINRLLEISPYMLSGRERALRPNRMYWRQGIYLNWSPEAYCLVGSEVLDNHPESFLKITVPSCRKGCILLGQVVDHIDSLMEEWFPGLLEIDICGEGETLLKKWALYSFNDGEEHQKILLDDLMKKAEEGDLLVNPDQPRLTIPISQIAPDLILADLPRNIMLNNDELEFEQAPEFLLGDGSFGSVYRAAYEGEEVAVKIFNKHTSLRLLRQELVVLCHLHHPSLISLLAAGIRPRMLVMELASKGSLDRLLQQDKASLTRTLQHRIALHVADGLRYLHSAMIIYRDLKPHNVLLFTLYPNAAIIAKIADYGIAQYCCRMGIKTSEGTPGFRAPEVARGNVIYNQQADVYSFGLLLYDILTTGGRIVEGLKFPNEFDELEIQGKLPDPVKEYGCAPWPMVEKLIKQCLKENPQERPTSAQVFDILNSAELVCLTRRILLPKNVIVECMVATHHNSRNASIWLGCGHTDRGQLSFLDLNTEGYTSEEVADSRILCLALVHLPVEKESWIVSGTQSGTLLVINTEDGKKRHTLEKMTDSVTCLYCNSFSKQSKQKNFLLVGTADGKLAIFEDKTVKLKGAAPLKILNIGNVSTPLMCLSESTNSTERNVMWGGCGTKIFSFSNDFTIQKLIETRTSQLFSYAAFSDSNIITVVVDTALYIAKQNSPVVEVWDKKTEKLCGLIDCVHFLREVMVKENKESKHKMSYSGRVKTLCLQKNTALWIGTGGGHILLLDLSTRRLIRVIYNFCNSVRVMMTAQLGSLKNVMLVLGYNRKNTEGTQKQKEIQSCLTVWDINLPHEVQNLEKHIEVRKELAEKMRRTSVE

[25] = biological target: Receptor-interacting serine/threonine-protein kinase 2 (Homo sapiens) (UniProt O43353); assay: Inhibition of RIPK2 (unknown origin) at 1 uM by ADP-Glo kinase assay relative to control
Receptor-interacting serine/threonine-protein kinase 2 (Homo sapiens), sequence (O43353 whole entry): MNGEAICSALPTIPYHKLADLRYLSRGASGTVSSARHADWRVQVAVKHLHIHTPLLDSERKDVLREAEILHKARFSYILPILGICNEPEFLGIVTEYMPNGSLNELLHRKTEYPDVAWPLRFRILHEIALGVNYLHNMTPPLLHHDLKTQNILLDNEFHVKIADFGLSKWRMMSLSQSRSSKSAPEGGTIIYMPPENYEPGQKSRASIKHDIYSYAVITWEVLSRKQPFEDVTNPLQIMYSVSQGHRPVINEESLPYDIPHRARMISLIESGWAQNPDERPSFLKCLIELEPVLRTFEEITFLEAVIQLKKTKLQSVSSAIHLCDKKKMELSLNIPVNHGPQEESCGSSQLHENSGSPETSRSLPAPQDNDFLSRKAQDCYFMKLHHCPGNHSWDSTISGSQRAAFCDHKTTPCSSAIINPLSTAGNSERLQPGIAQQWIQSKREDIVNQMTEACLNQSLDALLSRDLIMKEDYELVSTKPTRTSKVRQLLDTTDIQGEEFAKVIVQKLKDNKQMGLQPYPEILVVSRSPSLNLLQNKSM

[26] = Half life in C57BL6 mouse brain at 0.5 mg/kg, iv single administration measured upto 24 hrs by LC-MS/MS analysis; format: ADME, organism-based
[27] = AUC in C57BL6 mouse brain at 0.5 mg/kg, iv single administration measured upto 24 hrs by LC-MS/MS analysis; format: ADME, organism-based; parameters: dose 0.5 mg/kg, time < 24 hrs, route iv
[28] = AUC in C57BL6 mouse brain assessed as free brain drug at 0.5 mg/kg, iv single administration measured upto 24 hrs by LC-MS/MS analysis; format: ADME, organism-based; parameters: dose 0.5 mg/kg, time < 24 hrs, route iv; details: in vivo
[29] = Initial plasma concentration in C57BL6 mouse plasma at 0.5 mg/kg, iv single administration measured upto 24 hrs by LC-MS/MS analysis; format: ADME, organism-based
[30] = AUC (0 to last) in C57BL6 mouse brain at 0.5 mg/kg, iv single administration measured upto 24 hrs by LC-MS/MS analysis; format: ADME, organism-based; parameters: time < 24 hrs, dose 0.5 mg/kg, route iv
[31] = Ratio of total drug brain AUC to total plasma AUC in C57BL6 mouse brain at 0.5 mg/kg, iv single administration measured upto 24 hrs by LC-MS/MS analysis; format: ADME, organism-based
[32] = Ratio of free drug brain AUC to free plasma AUC in C57BL6 mouse brain at 0.5 mg/kg, iv single administration measured upto 24 hrs by LC-MS/MS analysis; format: ADME, organism-based; details: read-out: K(p,uu,brain)
[33] = In vivo stability in iv dosed Hsd:ICR (CD-1) mouse brain assessed as stability measured after 5 to 90 mins by radio-HPLC analysis; format: ADME, organism-based; details: time 5-90 min

Structure (SMILES) | remaining at 0.5 h [1] [%] | fraction unbound at 4 h [2] | half-life [3] [min] | AUC at 24 h [4] [ng·h/mL] | AUC [5] [ng·h/mL] | C0 at 24 h [6] [ng/mL] | AUC(0-t) at 24 h [7] [ng·h/mL] | Kp at 24 h [8] | Drug uptake [9] | Drug uptake [10] | Drug uptake [11] [% ID/g] | Drug uptake [12] [% ID/g] | Stability [15] | remaining at 5 min [16] [%] | remaining at 0.75 h [17] [%] | remaining at 5 min [18] [%] | remaining at […] [19] [%] | other results
O=C(Nc1cn2cc(-c3ccccc3CCF)ccc2n1)[C@@H]1C[C@@H]1F | < 30 | 0.0734 | 12 | 182 | 5 | 597 | 597 | 0.31 |  |  |  |  |  |  |  |  |  | 
O=C(Nc1cn2cc(-c3cccc(F)c3OCCF)ccc2n1)[C@@H]1C[C@@H]1F | < 30 | 0.0692 | 30 | 112 | 4 | 536 | 536 | 0.21 |  |  |  |  |  |  |  |  |  | 
O=C(Nc1cn2cc(-c3ccccc3CC[18F])ccc2n1)[C@@H]1C[C@@H]1F |  |  |  |  |  |  |  |  | Active | Active | 3.1 | 0.3 | Unstable | 72 | 13 | 93 | 8.5 | Drug uptake [13]: 1.6 % ID/g; Drug uptake [14]: 2.7 % ID/g; Drug uptake [20]: Active
Cc1cc(F)ncc1-c1ccc2nc(NC(=O)[C@@H]3C[C@@H]3F)sc2c1 | < 30 | 0.0192 |  |  |  |  |  |  |  |  |  |  |  |  |  |  |  | inhibition [21]: > 80%; inhibition [22]: > 80%; inhibition [23]: > 80%; inhibition [24]: > 80%; inhibition [25]: > 80%; half-life [26]: 540 min; AUC at 24 h [27]: 1670 ng·h/mL; AUC [28]: 10 ng·h/mL; C0 at 24 h [29]: 1580 ng/mL; AUC(0-t) at 24 h [30]: 3380 ng·h/mL; Kp at 24 h [31]: 0.49; Kp uu at 24 h [32]: 0.15
Cc1cc([18F])ncc1-c1ccc2nc(NC(=O)[C@@H]3C[C@@H]3F)sc2c1 |  |  |  |  |  |  |  |  | Active | Active | 4.2 | 1.2 |  |  |  |  |  | remaining at […] ([15]; Hsd:ICR (CD-1), plasma, read-out: Stability): 91%; Stability ([16]; in vivo, iv, 5 min): Stable; Stability ([17]; in vivo, iv, 0.75 h): Stable; Stability [33]: 99.42%
O=C(Nc1cn2cc(-c3cccc(F)c3OCC[18F])ccc2n1)[C@@H]1C[C@@H]1F |  |  |  |  |  |  |  |  | Active | Active | 1.1 | 0.2 | Unstable | 64 | 18 | 88 | 33 | 
